Values joined by “and” are separate entries in the source; they are usually repeats but may differ in a detail not shown here. Equal entries are not always repeated.
Columns and labels:
[1] = test system: phenylephrine (10 μM) pre-contracted rat isolated prostate; assay: Relaxation of phenylephrine pre-contracted rat isolated prostate strips (isometric tension)
Protocol: The rat isolated prostate tissue was prepared as previously described with modifications^[10]. Briefly, Wistar rats (300-400 g) were killed with pentobarbital sodium (30 mg/kg) and the ventral part of their prostates were quickly excised. […] O2 and 5% CO2.
Isometric tension was recorded with a force displacement transducer (UGO BASILE, Model 7004, Italy). After the equilibration period, the strips were primed twice by adding 10 μM of the agonist, phenylephrine, to reach 80-100% of maximum contraction. […] The relaxation on rat prostate by KMUP-1 (0.01-100 μM) and tamsulosin (0.001 nM-100 μM) were also tested by their combination with sildenafil (0.1 μM), respectively. In isolated prostate strips, while stable constriction to phenylephrine was reached, sildenafil (0.1 μM) was pre-incubation for 30 minutes, before the cumulative addition of KMUP-1 (0.01-100 μM) or tamsulosin (0.001 nM-100 μM) to isolated prostate strips. In another experiment, to examine the possible mechanism of action of KMUP-1, rat prostates were pretreated with ODQ (1H-[1,2,4]oxadiazolo[4,3-a]quinoxalin-1-one, 10 μM, sGC inhibitor), RP-8pCPT-cGMPs (10 μM, PKG inhibitor), glibenclamide (10 μM, KATP channel blocker), 4-AP (4-aminopyridine, 100 μM, voltage-dependent K^+ channel blocker), apamin (1 μM, Ca^2+-dependent K^+ channel blocker) and charybdotoxin (ChTX) (0.1 μM, Ca^2+-dependent K^+ channel blocker) for 30 minutes before addition of KMUP-1 (100 μM).

ROCK2 [2] = assay: Western blot of phenylephrine-induced Rho kinase (ROCK2) expression in rat prostate; conditions: KMUP-1 10, 100 μM; Y-27632 10 μM; phenylephrine 10 μM
Protocol: In order to examine the expression of Rho kinase in prostate, the prostate strips were pre-incubated with phenylephrine (10 μM) for 30 minutes. After a pre-treatment of phenylephrine, KMUP-1 (10-100 μM) and Y-27632 (10 μM) were further incubated for 30 minutes. After the incubation time, the prostate were extracted with protein extraction reagent (Pierce Biotechnology, Inc., Rockford, Ill., USA.). The PZ-HPV-7 cells were incubated with and without KMUP-1 (0.1-10 μM) at 30 minutes, 8 and 24 hours. They were then washed rapidly with ice-cold PBS, incubated with protein extraction reagent, and scraped from the plates. The prostate tissues and cells were sonicated three times for 10 second each time and centrifuged at 13,000 rpm at 4° C. for 30 minutes. The protein concentrations of supernatants were determined, using bovine serum albumin as the standard. Tissue and cell extract protein were then boiled at a ratio of 4:1 with sample buffer (100 mM Tris, pH 6.8, 20% glycerol, 4% SDS, and 0.2% bromphenol blue). 40-60 μg protein was used in this experiment. Electrophoresis was performed using 10 or 12% SDS-polyacrylamide gel electrophoresis and then transferred to nitrocellulose membranes (Millipore Corporation, Billerica, Mass.). […] The intensity of the bands was measured by densitometry.

[3] = test system: PZ-HPV-7 human prostatic epithelial cells; assay: Cell cycle distribution by flow cytometry; type: cell-based; conditions: 48 hours
Protocol: PZ-HPV-7 cells were incubated for 2 days with or without KMUP-1 (0.1-10 μM), after trypsinized for 10 minutes with 0.5% trypsin supplemented with 5.3 mM EDTA in HBBS. The cell suspension was then centrifuged at 200 g for 5 minutes at 4° C., resuspended in 1 mL ice-cold HBSS and fixed by the drop-wise addition of 2 mL of ice-cold methanol followed by continuously shaking. The processed cells were kept on ice for 30 minutes and then cells were collected by centrifugation at 90 g for 5 min and stained with propidium iodide (50 μg/mL, Sigma). RNase A (Promega, Madison, Wis.) was then added to a final concentration of 100 U/mL. Samples were stored in the dark for at least 30 minutes before an analysis on a Coulter Epics XL-MCL flow cytometer. […]

ROCK2 [4] = assay: Quantitative RT-PCR of Rho kinase (ROCK2) mRNA in PZ-HPV-7 cells; type: cell-based, human
Protocol: […] After the incubation, total RNA is isolated by processing the PZ-HPV-7 cells with TRI REAGEANT (Molecular Research Center, INC., Cincinnati, Ohio, USA) and 1-bromo-3chloropropane (BCP). Isopropanol was used to precipitate the isolated RNA; ethanol (75%) was used to wash the unwanted solution. The samples were then air-dried for 15 minutes at the room temperature. The pellet was re-suspended in 20 μL of DEPC-water (Ambion). After the RNA isolation, total RNA (2 μg) was used for the reverse transcription to cDNA by High-Capacity cDNA Reverse Transcription Kits (Applied Biosystems).
Quantitation of Rho kinase and an internal reference gene (GAPDH) were done by fluorescence-based real-time detection (ABI PRISM 7900HT Sequence Detection System (Taqman); Applied Biosystems, Foster City, Calif.). The PCR reaction mixture consisted of 1× TaqMan Master Mix, 1× Probe/primers Assay Mix, 100 ng cDNA, and water containing a reference dye, to a final volume of 20 μL (all reagents from Applied Biosystems). Cycling conditions were 50° C. for 2 minutes, 95° C. for 10 minutes, followed by 40 cycles at 95° C. for 15 second and 60° C. for 1 minute. Gene expression values (relative mRNA levels) are expressed as ratios (differences between the Ct values) between the genes of interest and an internal reference gene (GAPDH) providing a normalization factor for the amount of RNA isolated from cells. This analysis was performed by 7900 HT SDS 2.2.1 software.

Cn1c(=O)c2c(ncn2CCN2CCN(c3ccccc3Cl)CC2)n(C)c1=O [KMUP-1, 7-[2-[4-(2-Chlorobenzene)piperazinyl]ethyl]-1,3-dimethyl xanthine]
relaxation ([1]; 10 μM, 1 hour, phenylephrine 10 μM pre-contracted): 110.00±5.09%
relaxation activity ([1]; 100 μM combined with sildenafil 0.1 μM): 190.00±10.14%
relaxation ability ([1]; 100 μM, phenylephrine 10 μM pre-contracted): 179.00±5.35% and 179.00±5.3%
relaxation ([1]; KMUP-1 100 μM, pre-incubation with ODQ 10 μM): 112.50±7.84%
relaxation ([1]; KMUP-1 100 μM, pre-incubation with RP-8pCPT-cGMPs 10 μM): 128.00±4.41%
relaxation ([1]; KMUP-1 100 μM, with 4-AP 100 μM): 122.00±3.74%
relaxation ([1]; KMUP-1 100 μM, with apamin 1 μM): 126.00±9.09%
relaxation ([1]; KMUP-1 100 μM, with charybdotoxin 0.1 μM): 138.00±7.01%
relaxation ([1]; KMUP-1 100 μM, with glibenclamide 10 μM): 115.00±7.07%
phenylephrine-induced Rho kinase expression (ROCK2 [2]): protected against phenylephrine-induced Rho kinase expression
increase of G0/G1 phase compared with vehicle control ([3]; 0.1 μM): 7±1.54%
increase of G0/G1 phase compared with vehicle control ([3]; 1 μM): 10±2.07%
increase of G0/G1 phase compared with vehicle control ([3]; 10 μM): 12.00±0.88%
Rho kinase gene expression (ROCK2 [4]; 1 μM, 24 hours): 96.00±10.00 % of control
Rho kinase gene expression (ROCK2 [4]; 1 μM, 48 hours): 90.00±10.05 % of control
Rho kinase gene expression (ROCK2 [4]; 10 μM, 24 hours): 80.00±8.80 % of control
Rho kinase gene expression (ROCK2 [4]; 10 μM, 48 hours): 66.00±5.80 % of control
Rho kinase gene expression (ROCK2 [4]; 100 μM, 24 hours): 68.00±5.01 % of control
Rho kinase gene expression (ROCK2 [4]; 100 μM, 48 hours): 52.00±7.01 % of control
